Results on twelve compounds are retold here after PMC8348686, “The Pharmacological Profile of Second Generation Pyrovalerone Cathinones and Related Cathinone Derivative” (International Journal of Molecular Sciences, 2021).

One assay concerns the target hNET (Homo sapiens, UniProt P23975). The following applies: read-out: hNET Receptor Binding Ki ± SD, N-Methyl-[3H]-nisoxetine, cited from earlier work.
The next assay addresses dopaminergic D2 receptor (Homo sapiens, UniProt P14416). The following applies: read-out: D2 Receptor Binding Ki ± SD, [3H]-Spiperone, cited from earlier work.
Assay [1] has as its target T1, adrenergic α1A receptor (Homo sapiens, UniProt P35348).
T1 sequence (P35348 1-466): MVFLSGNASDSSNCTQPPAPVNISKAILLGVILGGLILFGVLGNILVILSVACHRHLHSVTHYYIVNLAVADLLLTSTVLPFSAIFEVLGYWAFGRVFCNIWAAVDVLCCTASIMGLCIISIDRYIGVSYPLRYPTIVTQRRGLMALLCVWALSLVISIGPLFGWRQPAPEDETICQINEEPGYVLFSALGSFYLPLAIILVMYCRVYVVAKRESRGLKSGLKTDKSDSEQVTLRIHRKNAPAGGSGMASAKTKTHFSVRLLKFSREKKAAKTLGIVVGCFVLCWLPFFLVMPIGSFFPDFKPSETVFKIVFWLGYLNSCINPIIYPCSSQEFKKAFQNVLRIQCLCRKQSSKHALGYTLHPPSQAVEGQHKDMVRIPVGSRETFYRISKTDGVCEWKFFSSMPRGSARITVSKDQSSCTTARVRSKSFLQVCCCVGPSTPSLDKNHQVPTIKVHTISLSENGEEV
The following applies: read-out: α1A Receptor Binding Ki ± SD, [3H]-Prazosin, cited from earlier work.

Another assay addresses T2, adrenergic α2A receptor (Homo sapiens, UniProt P08913).
T2 sequence (P08913 1-465): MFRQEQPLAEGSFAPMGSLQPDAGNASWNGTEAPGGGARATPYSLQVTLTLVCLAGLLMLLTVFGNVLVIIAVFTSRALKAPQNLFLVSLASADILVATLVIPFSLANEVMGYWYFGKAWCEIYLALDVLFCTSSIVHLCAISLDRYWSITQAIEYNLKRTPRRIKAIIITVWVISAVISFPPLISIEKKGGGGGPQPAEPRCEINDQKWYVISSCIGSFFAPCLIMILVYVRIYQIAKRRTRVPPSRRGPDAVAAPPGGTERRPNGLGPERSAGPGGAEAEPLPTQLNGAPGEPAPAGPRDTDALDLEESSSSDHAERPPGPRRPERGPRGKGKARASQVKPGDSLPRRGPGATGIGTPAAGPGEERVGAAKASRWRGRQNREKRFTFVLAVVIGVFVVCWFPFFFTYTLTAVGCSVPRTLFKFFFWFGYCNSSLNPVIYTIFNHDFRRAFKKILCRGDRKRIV
The following applies: [3H]-Rauwolscine, cited from earlier work; for Ki: read-out: α2A Receptor Binding Ki ± SD.

Another assay addresses Rat TAAR1. The following applies: [3H]-RO5166017, cited from earlier work; for Ki: read-out: Rat TAAR1 Receptor Binding Ki ± SD.
A further assay deals with Human TAAR1. Set-up: method as in Simmler et al. (2016). The following applies: ref Simmler et al. (2016); read-out: Human TAAR1 Activation Potency EC50 ± SD; cited from earlier work.
In another assay the target is hDAT (Homo sapiens, UniProt Q01959). Briefly: Transporter-mediated monoamine efflux, [3H]-DA preloaded HEK293 cells. Type of assay: cell-based. More on the design: expressed in transfected cells; host or cells: HEK293. The following applies: 100 μM of drug, 15 min, HEK293 hDAT preloaded with [3H]-DA; data for some pyrovalerones adapted from [13]. The protocol:
Monoamine efflux was assessed using human embryonic kidney 293 (HEK293) cells (Invitrogen, Zug, Switzerland) stably transfected with the human norepinephrine (hNET), dopamine (hDAT), or serotonin (hSERT) uptake transporters. In summary, the cells were seeded in poly-D-lysine coated XF24 cell culture microplates (Seahorse Biosciences, North Billerica, MA, USA) and cultured overnight at a concentration of 100,000 cells per well.
The cells were then exposed to Krebs–HEPES release buffer (85 μL/well) comprised of 130 mM NaCl, 1.3 mM KCl, 2.2 mM CaCl2, 1.2 mM MgSO4, 1.2 mM KH2PO4, 10 mM HEPES, and 10 mM D-glucose at a pH of 7.5, which also contained 10 nM radiolabelled neurotransmitter ([^3H]-5-HT for SERT, [^3H]-DA for DAT or [^3H]-NE for NET), 1 μM unlabelled neurotransmitter (DA or NE, only), 10 μM pargyline, and 0.2 mg/mL of ascorbic acid. This enabled the loading of the cells with their respective neurotransmitters via the uptake transporters. Afterwards, the release buffer was replaced by fresh buffer to wash the cells twice and the cells were then incubated for 15 min (DAT and SERT) or 45 min (NET) to 100 μM of test drugs dissolved in 1 mL of Krebs–HEPES buffer while shaking at 300 rpm and 37 °C. Termination of the release reaction occurred by removing the buffer from the cells and washing them with ice-cold buffer. Next, 50 μL of lysis buffer was added to the cells for 1 h in order to lyse the cells. Thereafter, 40 μL of the lysed cell mixture was transferred into scintillation vials (Perkin–Elmer, Schwerzenbach, Switzerland) containing 3 mL of scintillation fluid (Ultimagold, Perkin–Elmer, Schwerzenbach, Switzerland) and measured using liquid scintillation (as previously described in Section 2.2).
To quantify the “pseudo efflux” caused by the non-transporter mediated monoamine release and successive reuptake inhibition, each monoamine efflux experiment included a control where the cells were exposed to each respective transporter blocker (nisoxetine for NET, mazindol for DAT, and citalopram for SERT). The radioactivity inside the cells without any drug was set as 100%. The nonspecific release was subtracted from the total observed release at 100 μM of each examined drug to calculate the specific transporter mediated release. One single concentration of the test drugs was used (100 μM) and release exposure durations were set based on previously evaluated kinetics of the release-over-time curves.
An ANOVA followed by a Holm–Sidak test was conducted to compare each drug’s specific transporter-mediated efflux based on at least three independent experiments to the control condition.

The next assay addresses h5-HT2A receptor (Homo sapiens, UniProt P28223). More on the design: expressed in transfected cells; host or cells: HEK293 cell preparations; method as in Rickli et al. (2015). The following applies: read-out: h5-HT2A Activation Potency EC50 ± SD; ref Rickli et al. (2015); cited from earlier work.
The target of assay [2] is T1, adrenergic α1A receptor. Description: Receptor binding, [3H]-prazosin.
[3] abbreviates: ref Luethi, Kolaczynska et al. (2019).

SMILES strings stand for the structures. Entries after “also recorded” stand apart in the source; their conditions may differ. Like-named read-outs stand apart in the source and are kept apart here.

Sequence of hNET (P23975 whole entry): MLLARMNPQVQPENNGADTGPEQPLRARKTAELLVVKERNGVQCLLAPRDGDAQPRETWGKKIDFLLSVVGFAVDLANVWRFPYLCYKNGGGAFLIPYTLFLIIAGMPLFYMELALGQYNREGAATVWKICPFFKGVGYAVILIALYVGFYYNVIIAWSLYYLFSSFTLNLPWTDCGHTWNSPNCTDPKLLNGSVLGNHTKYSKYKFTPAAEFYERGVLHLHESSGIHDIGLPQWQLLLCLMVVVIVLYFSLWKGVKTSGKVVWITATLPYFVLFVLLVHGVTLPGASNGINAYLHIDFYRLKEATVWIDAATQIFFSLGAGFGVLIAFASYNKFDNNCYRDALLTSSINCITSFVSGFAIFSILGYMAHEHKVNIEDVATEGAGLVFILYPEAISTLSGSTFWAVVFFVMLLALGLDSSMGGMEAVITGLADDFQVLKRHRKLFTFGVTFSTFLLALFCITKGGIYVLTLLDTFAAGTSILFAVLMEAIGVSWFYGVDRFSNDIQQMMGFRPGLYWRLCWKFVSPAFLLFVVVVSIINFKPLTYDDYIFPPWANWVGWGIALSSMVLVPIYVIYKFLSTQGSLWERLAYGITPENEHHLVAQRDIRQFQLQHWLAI
Sequence of hDAT (Q01959 whole entry): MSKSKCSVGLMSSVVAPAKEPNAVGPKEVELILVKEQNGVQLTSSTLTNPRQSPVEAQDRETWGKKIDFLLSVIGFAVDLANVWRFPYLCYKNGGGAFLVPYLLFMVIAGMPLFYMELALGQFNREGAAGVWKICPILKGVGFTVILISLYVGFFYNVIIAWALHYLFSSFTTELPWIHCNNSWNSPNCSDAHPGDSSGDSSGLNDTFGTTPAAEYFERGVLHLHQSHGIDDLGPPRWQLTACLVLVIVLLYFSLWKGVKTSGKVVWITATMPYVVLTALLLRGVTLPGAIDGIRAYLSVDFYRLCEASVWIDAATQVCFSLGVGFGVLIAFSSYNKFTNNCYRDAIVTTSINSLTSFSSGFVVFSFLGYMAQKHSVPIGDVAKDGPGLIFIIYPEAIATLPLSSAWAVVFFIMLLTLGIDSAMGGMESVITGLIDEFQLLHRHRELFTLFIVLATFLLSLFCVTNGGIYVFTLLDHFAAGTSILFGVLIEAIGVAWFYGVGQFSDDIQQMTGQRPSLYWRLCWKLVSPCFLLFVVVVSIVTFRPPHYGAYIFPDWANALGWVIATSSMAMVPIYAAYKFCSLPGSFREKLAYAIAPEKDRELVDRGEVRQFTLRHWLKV
Sequence of dopaminergic D2 receptor (P14416 whole entry): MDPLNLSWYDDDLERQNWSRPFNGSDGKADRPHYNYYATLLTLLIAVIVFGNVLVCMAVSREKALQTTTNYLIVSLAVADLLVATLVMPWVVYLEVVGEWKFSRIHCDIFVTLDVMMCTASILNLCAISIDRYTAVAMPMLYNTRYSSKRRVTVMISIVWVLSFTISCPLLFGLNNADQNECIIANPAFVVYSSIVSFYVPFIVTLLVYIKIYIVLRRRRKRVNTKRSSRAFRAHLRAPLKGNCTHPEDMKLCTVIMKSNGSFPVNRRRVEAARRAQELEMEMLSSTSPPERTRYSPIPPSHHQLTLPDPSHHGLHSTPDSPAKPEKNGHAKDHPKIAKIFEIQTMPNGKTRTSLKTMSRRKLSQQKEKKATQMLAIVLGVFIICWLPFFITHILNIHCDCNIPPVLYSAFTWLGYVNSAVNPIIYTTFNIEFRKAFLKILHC
Sequence of h5-HT2A receptor (P28223 whole entry): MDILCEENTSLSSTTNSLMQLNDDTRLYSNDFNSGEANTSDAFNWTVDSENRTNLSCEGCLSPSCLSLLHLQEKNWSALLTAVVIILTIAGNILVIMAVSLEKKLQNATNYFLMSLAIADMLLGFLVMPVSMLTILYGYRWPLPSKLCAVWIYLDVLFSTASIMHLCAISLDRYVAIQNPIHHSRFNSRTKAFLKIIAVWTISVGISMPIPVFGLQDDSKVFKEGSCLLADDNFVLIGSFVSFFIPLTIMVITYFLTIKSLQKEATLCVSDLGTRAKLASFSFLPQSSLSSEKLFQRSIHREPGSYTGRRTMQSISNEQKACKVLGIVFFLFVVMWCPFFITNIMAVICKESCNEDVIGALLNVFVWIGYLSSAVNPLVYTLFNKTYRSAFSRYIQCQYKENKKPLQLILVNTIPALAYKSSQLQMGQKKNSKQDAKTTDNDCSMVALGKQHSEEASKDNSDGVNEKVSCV

By Ki is commonly meant a dissociation constant, usually derived from enzyme kinetics or from competition with a known ligand. Regarding `CCCC(C(=O)c1ccc(C)cc1)N1CCCC1` (centres unmarked) [Pyrovalerone, pyrovalerone], the Ki was 0.06 ± 0.01 µM at hNET (ref Simmler et al. (2013)); above 30 µM at dopaminergic D2 receptor (ref Simmler et al. (2013)); above 6 µM on adrenergic α1A receptor [1] (ref Simmler et al. (2013)); above 20 µM on adrenergic α2A receptor (ref Simmler et al. (2013)); above 12.5 µM at Rat TAAR1 (ref Simmler et al. (2013)).

As for `CCC(C(=O)c1ccc2c(c1)OCO2)N1CCCC1` (stereo not drawn) [MDPBP, 3,4-methylenedioxy-α-pyrrolidinobutiophenone], the Ki was 1.1 ± 0.1 µM at hNET (ref Rickli et al. (2015)); above 20 µM at dopaminergic D2 receptor (ref Rickli et al. (2015)); above 4.9 µM on adrenergic α1A receptor [1] (ref Rickli et al. (2015)); 9.4 ± 1.6 µM on adrenergic α2A receptor (ref Rickli et al. (2015)); above 20 µM on Rat TAAR1 (ref Rickli et al. (2015)). In addition, on adrenergic α2A receptor (ref Rickli et al. (2015)), the “α2A Receptor Binding Ki ± SD” value is recorded as “bound the receptor in the low micromolar range”.

Broadly, the EC50 is the concentration giving half of the maximal effect. For `CCCC(C(=O)c1ccc2c(c1)OCO2)N1CCCC1` (centres unmarked) [MDPV, 3,4-methylenedioxypyrovalerone], the Ki at hNET (ref Simmler et al. (2013)) is 0.08 ± 0.02 µM; on dopaminergic D2 receptor (ref Simmler et al. (2013)), above 30 µM; on adrenergic α1A receptor [1] (ref Simmler et al. (2013)), above 6 µM; on adrenergic α2A receptor (ref Simmler et al. (2013)), above 20 µM; at Rat TAAR1 (ref Simmler et al. (2013)) it was 7.2 ± 1.1 µM. In the assay on Human TAAR1, the EC50 is above 30 µM. Besides, the “Rat TAAR1 Receptor Binding Ki ± SD” value at Rat TAAR1 (ref Simmler et al. (2013)) was “bound the rat TAAR1”.

As for `CCCC(C(=O)c1ccccc1)N1CCCC1` (stereo not drawn) [α-PVP, α-pyrrolidinopentiophenone], the Ki at hNET (ref Rickli et al. (2015)) was 0.06 ± 0.02 µM; on dopaminergic D2 receptor (ref Rickli et al. (2015)), above 10 µM; on adrenergic α1A receptor [1] (ref Rickli et al. (2015)) it was above 15 µM; on adrenergic α2A receptor (ref Rickli et al. (2015)), above 20 µM; on Rat TAAR1 (ref Rickli et al. (2015)), 16 ± 6.4 µM. The “Rat TAAR1 Receptor Binding Ki ± SD” value on Rat TAAR1 (ref Rickli et al. (2015)) was “bound the rat TAAR1”. Besides, the “Transporter-mediated monoamine efflux (DA) vs mazindol” value on hDAT is reported as “did not induce any monoamine efflux”.

In the case of `CCCCC(NCC)C(=O)c1ccccc1` (centres unmarked) [NEH, N-ethylamine-hexanophenone], the “Transporter-mediated monoamine efflux (DA) vs mazindol” value at hDAT is reported as “did not produce any monoamine efflux; also recorded: did not induce any monoamine efflux”.

On to `CCC(C(=O)c1ccc(F)cc1)N1CCCC1` (stereo not drawn) [4F-PBP, 4-fluoro-α-pyrrolidinobutiophenone], for which, at hDAT, the “Transporter-mediated monoamine efflux (DA) vs mazindol” value is on record as “did not induce any monoamine efflux”.

Take `CCCCC(C(=O)c1ccccc1)N1CCCC1` (stereo not drawn) [α-PHP, α-pyrrolidinohexanophenone]: the “Transporter-mediated monoamine efflux (DA) vs mazindol” value at hDAT is listed as “did not induce any monoamine efflux”.

Turning to `CNC(C)Cc1ccc2c(c1)OCO2` (centres unmarked) [MDMA, 3,4-methylenedioxymethamphetamine, reference compound], the Ki was above 8.7 µM on hNET (setting [3]); above 13 µM at dopaminergic D2 receptor (setting [3]); 6.9 ± 1.2 µM at adrenergic α1A receptor [1] (setting [3]); 4.6 ± 1.1 µM on adrenergic α2A receptor (setting [3]); 0.25 ± 0.01 µM at Rat TAAR1 (setting [3]). For the same compound, the values for the EC50 with Human TAAR1 and on h5-HT2A receptor were 35 ± 21 µM and 6.1 ± 0.3 µM, respectively. Besides, at hDAT, the “Transporter-mediated monoamine efflux (DA) vs mazindol” value is recorded as “causes significant release at the transporters”.

With `CCCCC(C(=O)c1ccc(C)cc1)N1CCCC1` (stereo not drawn) [MPHP, 4-methyl-α-pyrrolidinohexanophenone], the “Transporter-mediated monoamine efflux (DA) vs mazindol” value on hDAT is “no monoamine efflux was observed”.

Regarding `CC(C(=O)c1ccccc1)N1CCCC1` (stereo not drawn) [α-PPP, α-pyrrolidinopropiophenone], on hDAT, the “Transporter-mediated monoamine efflux (DA) vs mazindol” value is recorded as “did not induce any monoamine efflux”.

Turning to `Cc1ccc(C(=O)C(C)N2CCCC2)cc1` (stereo not drawn) [4-MePPP, 4-methyl-α-pyrrolidinopropiophenone], affinity on adrenergic α1A receptor [2] was put at a Ki of 2.2 ± 0.1 µM. The “Transporter-mediated monoamine efflux (DA) vs mazindol” value on hDAT is “no monoamine efflux was observed”.

For the compound `CC(C(=O)c1ccc2c(c1)OCO2)N1CCCC1` (stereo not drawn) [MDPPP, 3,4-methylenedioxy-α-pyrrolidinopropiophenone], the Ki at hNET (ref Rickli et al. (2015)) is 3.5 ± 1 µM; at dopaminergic D2 receptor (ref Rickli et al. (2015)), above 10 µM; on adrenergic α1A receptor [1] (ref Rickli et al. (2015)), above 15 µM; at adrenergic α2A receptor (ref Rickli et al. (2015)), 14 ± 0.9 µM; on Rat TAAR1 (ref Rickli et al. (2015)), 16 ± 6.7 µM. Besides, the “α2A Receptor Binding Ki ± SD” value at adrenergic α2A receptor (ref Rickli et al. (2015)) was “bound the receptor in the low micromolar range”. Further, the “Rat TAAR1 Receptor Binding Ki ± SD” value on Rat TAAR1 (ref Rickli et al. (2015)) was “bound the rat TAAR1”.
